In ChEMBL document CHEMBL1201862, “PubChem BioAssay data set” (2004):
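Tested at 5 concentrations; 48 h exposure; 96-well plates; endpoints linearly interpolated, else capped at highest concentration. GI50 is the concentration that inhibits growth by half.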 The source made the active and inactive calls. No stated cut-off is given here; in the data, active = GI50 up to about 1.1 µM and inactive = higher.

Experiments:
Test in all cases: NCI anticancer screen, dose series, 48 h
[1] = system: NCI-H226
[2] = system: NCI-H522
[3] = system: NCI-H460
[4] = system: CCRF-CEM
[5] = system: RXF 393
[6] = system: HT-29
[7] = system: 786-0
[8] = system: U-251
[9] = system: KM12
[10] = system: K562
[11] = system: UACC-257
[12] = system: ACHN
[13] = system: SN12C
[14] = system: T47D
[15] = system: MOLT-4
[16] = system: BT-549
[17] = system: IGROV-1
[18] = system: SNB-75
[19] = system: HOP-92
[20] = system: MDA-MB-231
[21] = system: HCC 2998
[22] = system: HCT-116
[23] = system: PC-3
[24] = system: NCI/ADR-RES
[25] = system: SF-295
[26] = system: NCI-H23
[27] = system: HCT-15
[28] = system: Hs-578T
[29] = system: SK-OV-3
[30] = system: SNB-19
[31] = system: SF-268
[32] = system: UO-31
[33] = system: A549
[34] = system: SK-MEL-28
[35] = system: HOP-62
[36] = system: OVCAR-5
[37] = system: SK-MEL-5
[38] = system: A498
[39] = system: DU-145
[40] = system: EKVX
[41] = system: MDA-N
[42] = system: OVCAR-4
[43] = system: CAKI-1
[44] = system: OVCAR-8
[45] = system: COLO 205
[46] = system: TK-10
[47] = system: M14
[48] = system: MCF7
[49] = system: SW-620
[50] = system: OVCAR-3
[51] = system: RPMI-8226
[52] = system: MDA-MB-435
[53] = system: SF-539
[54] = system: UACC-62
[55] = system: LOX IMVI
[56] = system: SK-MEL-2
[57] = system: SR
[58] = system: Malme-3M
[59] = system: HL-60

## N#CCCN(CCC#N)c1ccc(C(=N/c2ccc(Cl)cc2)/N=N/c2ccccc2)cc1
[1]
  GI50: > 100 µM (inactive)
[2]
  GI50: 36.6 µM (inactive)
[3]
  GI50: 55.1 µM (inactive)
[4]
  GI50: > 100 µM (inactive)
[5]
  GI50: 16.9 µM (inactive)
[6]
  GI50: > 100 µM (inactive)
[7]
  GI50: > 100 µM (inactive)
[8]
  GI50: > 100 µM (inactive)
[9]
  GI50: 58.5 µM (inactive)
[10]
  GI50: > 100 µM (inactive)
[11]
  GI50: 59.4 µM (inactive)
[12]
  GI50: > 100 µM (inactive)
[13]
  GI50: > 100 µM (inactive)
[14]
  GI50: 12.8 µM (inactive)
[15]
  GI50: > 100 µM (inactive)
[16]
  GI50: 17.5 µM (inactive)
[17]
  GI50: 55.7 µM (inactive)
[18]
  GI50: 59.4 µM (inactive)
[19]
  GI50: > 100 µM (inactive)
[20]
  GI50: > 100 µM (inactive)
[21]
  GI50: 26.6 µM (inactive)
[22]
  GI50: > 100 µM (inactive)
[23]
  GI50: > 100 µM (inactive)
[24]
  GI50: 36.3 µM (inactive)
[25]
  GI50: 10.9 µM (inactive)
[26]
  GI50: 54.2 µM (inactive)
[27]
  GI50: 27.4 µM
[28]
  GI50: > 100 µM (inactive)
[29]
  GI50: > 100 µM (inactive)
[30]
  GI50: > 100 µM (inactive)
[31]
  GI50: > 100 µM (inactive)
[32]
  GI50: 23.8 µM (inactive)
[33]
  GI50: 36.4 µM (inactive)
[34]
  GI50: > 100 µM (inactive)
[35]
  GI50: > 100 µM (inactive)
[36]
  GI50: > 100 µM (inactive)
[37]
  GI50: 10.3 µM (inactive)
[38]
  GI50: > 100 µM (inactive)
[39]
  GI50: 88.5 µM (inactive)
[40]
  GI50: 99.5 µM (inactive)
[41]
  GI50: > 100 µM (inactive)
[42]
  GI50: 66.5 µM (inactive)
[43]
  GI50: > 100 µM (inactive)
[44]
  GI50: > 100 µM (inactive)
[45]
  GI50: 48.8 µM (inactive)
[46]
  GI50: 88.5 µM (inactive)
[47]
  GI50: > 100 µM (inactive)
[48]
  GI50: > 100 µM (inactive)
[49]
  GI50: > 100 µM (inactive)
[50]
  GI50: 66.7 µM (inactive)
[51]
  GI50: > 100 µM (inactive)
[52]
  GI50: 44.9 µM (inactive)
[53]
  GI50: > 100 µM (inactive)
[54]
  GI50: 34.3 µM (inactive)

## O=S(=O)(O)c1ccc2c(/N=N/c3ccccc3Cl)c(O)ccc2c1
[2]
  GI50: > 100 µM (inactive)
[4]
  GI50: > 100 µM (inactive)
[5]
  GI50: > 100 µM (inactive)
[6]
  GI50: > 100 µM (inactive)
[7]
  GI50: > 100 µM (inactive)
[8]
  GI50: > 100 µM (inactive)
[9]
  GI50: > 100 µM (inactive)
[10]
  GI50: > 100 µM (inactive)
[11]
  GI50: > 100 µM (inactive)
[12]
  GI50: > 100 µM (inactive)
[13]
  GI50: > 100 µM (inactive)
[14]
  GI50: > 100 µM (inactive)
[15]
  GI50: > 100 µM (inactive)
[16]
  GI50: > 100 µM (inactive)
[17]
  GI50: > 100 µM (inactive)
[55]
  GI50: > 100 µM (inactive)
[18]
  GI50: > 100 µM (inactive)
[19]
  GI50: > 100 µM (inactive)
[20]
  GI50: > 100 µM (inactive)
[22]
  GI50: > 100 µM (inactive)
[23]
  GI50: > 100 µM (inactive)
[24]
  GI50: > 100 µM (inactive)
[56]
  GI50: > 100 µM (inactive)
[25]
  GI50: > 100 µM (inactive)
[26]
  GI50: > 100 µM (inactive)
[27]
  GI50: > 100 µM
[28]
  GI50: > 100 µM (inactive)
[29]
  GI50: > 100 µM (inactive)
[30]
  GI50: > 100 µM (inactive)
[31]
  GI50: > 100 µM (inactive)
[32]
  GI50: > 100 µM (inactive)
[33]
  GI50: > 100 µM (inactive)
[34]
  GI50: > 100 µM (inactive)
[35]
  GI50: > 100 µM (inactive)
[57]
  GI50: > 100 µM (inactive)
[36]
  GI50: > 100 µM (inactive)
[37]
  GI50: > 100 µM (inactive)
[38]
  GI50: > 100 µM (inactive)
[39]
  GI50: > 100 µM (inactive)
[40]
  GI50: > 100 µM (inactive)
[41]
  GI50: > 100 µM (inactive)
[42]
  GI50: > 100 µM (inactive)
[43]
  GI50: > 100 µM (inactive)
[44]
  GI50: > 100 µM (inactive)
[45]
  GI50: > 100 µM (inactive)
[46]
  GI50: > 100 µM (inactive)
[47]
  GI50: > 100 µM (inactive)
[49]
  GI50: > 100 µM (inactive)
[50]
  GI50: > 100 µM (inactive)
[51]
  GI50: > 100 µM (inactive)
[52]
  GI50: > 100 µM (inactive)
[54]
  GI50: > 100 µM (inactive)
[58]
  GI50: > 100 µM (inactive)

## c1ccc([B-]2(c3ccccc3)OCCc3cccc[n+]32)cc1
[1]
  GI50: 50.1 µM (inactive)
[2]
  GI50: 49.1 µM (inactive)
[3]
  GI50: 60.3 µM (inactive)
[4]
  GI50: 23.4 µM (inactive)
[5]
  GI50: 33.3 µM (inactive)
[6]
  GI50: 87.1 µM (inactive)
[7]
  GI50: 70.1 µM (inactive)
[8]
  GI50: > 100 µM (inactive)
[9]
  GI50: 96.4 µM (inactive)
[10]
  GI50: > 100 µM (inactive)
[11]
  GI50: 80.7 µM (inactive)
[12]
  GI50: 37.9 µM (inactive)
[13]
  GI50: 59.3 µM (inactive)
[14]
  GI50: 41 µM (inactive)
[15]
  GI50: 56.2 µM (inactive)
[16]
  GI50: 31.6 µM (inactive)
[17]
  GI50: 66.1 µM (inactive)
[55]
  GI50: 97.3 µM (inactive)
[19]
  GI50: 28.2 µM (inactive)
[20]
  GI50: 84.5 µM (inactive)
[22]
  GI50: 35 µM (inactive)
[59]
  GI50: 40.8 µM (inactive)
[23]
  GI50: 18.5 µM (inactive)
[24]
  GI50: 59 µM (inactive)
[56]
  GI50: 75.9 µM (inactive)
[25]
  GI50: 67 µM (inactive)
[26]
  GI50: 48.8 µM (inactive)
[27]
  GI50: 44.5 µM
[28]
  GI50: 37.7 µM (inactive)
[29]
  GI50: 74.8 µM (inactive)
[30]
  GI50: > 100 µM (inactive)
[31]
  GI50: 97.5 µM (inactive)
[32]
  GI50: 23.7 µM (inactive)
[33]
  GI50: 84.9 µM (inactive)
[34]
  GI50: 47.8 µM (inactive)
[35]
  GI50: > 100 µM (inactive)
[57]
  GI50: 22.8 µM (inactive)
[36]
  GI50: > 100 µM (inactive)
[37]
  GI50: 41.2 µM (inactive)
[38]
  GI50: 19.6 µM (inactive)
[39]
  GI50: 88.1 µM (inactive)
[40]
  GI50: 91.8 µM (inactive)
[41]
  GI50: 50.2 µM (inactive)
[42]
  GI50: 82.4 µM (inactive)
[43]
  GI50: 33 µM (inactive)
[44]
  GI50: 75 µM (inactive)
[45]
  GI50: 26.2 µM (inactive)
[46]
  GI50: 54.3 µM (inactive)
[47]
  GI50: 36.2 µM (inactive)
[49]
  GI50: 51.9 µM (inactive)
[50]
  GI50: 51.8 µM (inactive)
[51]
  GI50: 65.3 µM (inactive)
[52]
  GI50: 33.3 µM (inactive)
[53]
  GI50: 28.5 µM (inactive)
[54]
  GI50: 58.3 µM (inactive)
[58]
  GI50: 42.4 µM (inactive)
